# Reference: patent US10201530B2, “Treatment of BRCA1-defective cancer or resistant cancers” (City of Hope, priority 2014, dated 2019)
# Tests used:
# KB-7D = assay: Cytotoxicity, KB-7D cells; format: cell-based, human; conditions: Homo sapiens, KB7D, cisplatin-resistant, read-out: IC50, mean ± SEM
# Procedure: (§1) All cell lines were acquired from the American Type Culture Collection (Manassas, Va., USA). Cells were maintained in RPMI 1640 medium (Mediatech) with 10% fetal bovine serum, 2 mM glutamine, and 100 U of penicillin and 100 μg of streptomycin per ml of medium (Sigma) at 37° C. in 5% CO2. To isolate HCC1437+BRCA1 cells, parental HCC1937 cells were transfected with pcDNA3.1 plasmid expressing full-length BRCA1 cDNA. Stable transfectant clones were selected and used for drug sensitivity assays. For stable transfection, cells at 30-40% confluence were incubated overnight with […] of plasmid DNA, using FUGENE® 6 transfectin reagent (Roche Molecular Biochemical, Monza, Italy) according to the manufacturer's instructions. Cells were then selected in puromycin (1 μg/ml) (Invitrogen life Technologies, La Jolla, Calif., USA.) After 20 to 30 days, viable puromycin-resistant colonies from HCC1937 transfections were expanded and screened. The clones that stably expressed […] and retained growth potential were assayed for BRCA1 expression by Western blot analysis. By Western blot analysis, we evaluated the restoration of BRCA1 expression in the puromycin-resistant cDNA/transfectant cells.
# (§2) The MTT cytotoxicity assay was performed by incubating with MTT and monitoring the MTT formazan formed by viable cells with a microplate reader at a wavelength of 560 nm; the survival, ratio was determined using the formula: (Atest−Ablank)/(Acontrol−Ablank)×100%. The cytotoxicity was determined in 96-well plates using the semiautomatic fluorescence-based Digital Imaging Microscopy System (DIMSCAN). DIMSCAN uses digital imaging microscopy to quantify viable cells, which selectively accumulate FDA (fluorescein diacetate; Alfa Aesar, Ward Hill, Mass.). DIMSCAN is capable of measuring cytotoxicity over a 4 log dynamic range by quantifying total fluorescence per well (which is proportional to the number of viable cells) after elimination of the background fluorescence by digital thresholding and eosin Y (Mallinckrodt Baker, Center Valley, Pa.) quenching. Cells were seeded into 96-well plates in 100 μL of complete medium at 2,000 to 5,000 cells per well depending on cell line growth rate. After overnight incubation, test compound was added to each well at various concentrations in 50 μL of culture medium. After incubation with the drugs for 96 hours at 37° C., FDA (final concentration: 10 mg/mL) and eosin Y [final concentration: 0.1% (w/v)] were added to each well and the cells were incubated for an additional 20 minutes at 37° C. Total fluorescence per well was then measured using DIMSCAN, and the results were expressed as the ratio of the fluorescence in treated wells to the fluorescence in untreated wells (survival fraction).
# MDA-MB-231 = assay: Cytotoxicity, MDA-MB-231 cells; format: cell-based, human; conditions: Homo sapiens; MDA-MB-231, TNBC; read-out: IC50, mean ± SEM
# Procedure: as §1, §2
# zebrafish embryos = assay: Zebrafish genotoxicity assay; format: in vivo, Danio rerio; conditions: wild-type zebrafish embryos, COH29 0-100 μM
# Procedure: Zebrafish (Danio rerio) were obtained from zebrafish Core facility of Taipei Medical University and maintained at 28° C. on a 14 h light/10 h dark cycle. Embryos were incubated at 28° C. and different developmental stages were determined as described (25). Wild-type embryos were treated with different concentrations of HU (0, 5, […], 20, 50 mM) or COH29 (0, 10, 20, 50, 100 μM) at 20 hpf to evaluate the mutagenic effect. Fifteen embryos were treated per well condition. […] Embryos were observed using an Olympus IX70-FLA inverted fluorescence microscope. Images were taken using SPOT digital camera system (Diagnostic Instruments, Sterling Heights, Mich., USA) and assembled with ImageJ software (26).
# TOV112D = assay: Cytotoxicity, TOV112D cells; format: cell-based, human; conditions: Homo sapiens, read-out: IC50, mean ± SEM
# Procedure: as §1, §2
# A2780 = assay: Cytotoxicity, A2780 cells; format: cell-based, human; conditions: Homo sapiens; A2780, cisplatin-sensitive ovarian cells; read-out: IC50, mean ± SEM
# Procedure: as §1, §2
# HCC1937 + BRCA1 = assay: Cytotoxicity, HCC1937+BRCA1 cells; format: cell-based, human; conditions: Homo sapiens; HCC1937 + BRCA1, triple negative; COH29 72 h
# Procedure: as §1
# The MTT cytotoxicity assay was performed by incubating with MTT and monitoring the MTT formazan formed by viable cells with a microplate reader at a wavelength of 560 nm; the survival, ratio was determined using the formula: (Atest−Ablank)/(Acontrol−Ablank)×100%. The cytotoxicity was determined in 96-well plates using the semiautomatic fluorescence-based Digital Imaging Microscopy System (DIMSCAN). DIMSCAN uses digital imaging microscopy to quantify viable cells, which selectively accumulate FDA (fluorescein diacetate; Alfa Aesar, Ward Hill, Mass.). DIMSCAN is capable of measuring cytotoxicity over a 4 log dynamic range by quantifying total fluorescence per well (which is proportional to the number of viable cells) after elimination of the background fluorescence by digital thresholding and eosin Y (Mallinckrodt Baker, Center Valley, Pa.) quenching. […]
# OV90 = assay: Cytotoxicity (MTT/DIMSCAN), OV90 cells; format: cell-based, human; conditions: Homo sapiens, OV-90; OV90, wild-type BRCA1 ovarian cancer cells; COH29 72 h; read-out: IC50, mean ± SEM
# Procedure: as §1
# as §2, with “After incubation with the drugs for 96 hours at 37° C., FDA (final concentration: 10 mg/mL) and eosin Y [final concentration: 0.1% (w/v)] were added to each well and the cells were incubated for an additional 20 minutes at 37° C.” left out
# UWB1.289 + BRCA1 = assay: Cytotoxicity, UWB1.289+BRCA1 cells; format: cell-based, human; conditions: Homo sapiens, UWB1289; UWB1.289 + BRCA1 (WT); COH29 72 h; read-out: IC50, mean ± SEM
# Procedure: as §1
# as §2, with “After incubation with the drugs for 96 hours at 37° C., FDA (final concentration: 10 mg/mL) and eosin Y [final concentration: 0.1% (w/v)] were added to each well and the cells were incubated for an additional 20 minutes at 37° C.” left out
compound,measurement,setting,value
O=C(Nc1nc(-c2ccc(O)c(O)c2)c(-c2ccccc2)s1)c1ccc(O)c(O)c1 [COH29],IC50,KB-7D,8.48 ± 0.27 µM
same,IC50,MDA-MB-231,9.7 ± 1.52 µM
same,viability,zebrafish embryos,no developmental defects (FIG. 5C) or decrease in viability
same,developmental defects,zebrafish embryos; HU 0-50 mM,no developmental defects
same,IC50,TOV112D,16 ± 2.08 µM
same,IC50,A2780,4.67 ± 1.64 µM
same,IC50,HCC1937 + BRCA1,35 ± 3.63 µM
same,IC50,OV90,31.6 ± 3.35 µM
same,IC50,UWB1.289 + BRCA1,23.5 ± 2.38 µM
